Data: patent US9585391B2, “Pesticidal mixtures” (priority 2009, dated 2017)

What was measured:
Assay type in all cases: in vivo
cucumber cotyledons = experiment: growth (biomass) of cucumber cotyledons; details: for stimulation of the growth of the cotyledons: applied alone; for Mean cotyledon biomass: 4 days in the dark at 21.5° C.; for Observed efficacy: % biomass increase compared to the control
Procedure: The effect of fluxapyroxad solo, dicamba solo and a mixture comprising both compounds on the growth (biomass) of cucumber cotyledons was evaluated. […] Subsequently, 20 to 30 cotyledons per treatment were cut and placed in a Petri dish containing 10 ml of the treatment solution as described below. Control cotyledons were treated with the 0.5% DMSO solution only. Following the incubation in the dark at 21.5° C. for 4 days the cotyledons were weight and the fresh biomass recorded (table 2). […] The efficacy of the tested active ingredients was calculated as % of biomass increase compared to the control: E=(a/b−1)·100 a corresponds to biomass of cotyledons after incubation in the treated plants in g; and b corresponds to biomass of cotyledons after incubation in the control in g. […] The expected efficacies of the combinations of the active ingredients were estimated using Colby's formula (Colby, S.

wheat plants = experiment: water loss through transpiration of cut wheat plants (drought tolerance); details: for transpiration (water loss): applied alone
Procedure: The transpiration as an direct indicator of water stress of wheat plants treated or not treated with fluxapyroxad solo, dicamba solo, and respective mixtures thereof was assessed. 10 to 14 days old wheat plants were cut above the ground and placed into Eppendorf caps containing 2.2 ml of the test solution as described below. The wheat plants were incubated for 24 h at 25° C. and 50% relative humidity in a growth chamber. The weight of the Eppendorf cap including the test solution but excluding the plant was assessed before and after incubation. The difference in weight was recorded as the loss of water through transpiration. This assay was used to asses the drought tolerance of the plants. In the present example wheat plants of the variety ‘Monopol’ were grown at 18° C. for 10 days in the greenhouse prior to the treatment and the incubation. 10 plants per treatment were treated and incubated as described. Fluxapyroxad and dicamba were dissolved on 0.5% DMSO. The tested concentrations are described in table 3. Control plants were treated with the blank 0.5% DMSO solution only. The efficacy of the tested compounds and mixtures was calculated as % of water loss compared to the control; […] The expected efficacies of the combinations of the compounds were estimated using Colby's formula (Colby, S.

wheat leaves = experiment: relative weight loss of detached wheat leaves (drought tolerance); details: for fresh weight loss: applied alone
Procedure: The relative weight loss of wheat leaves treated or not treated with fluxapyroxad, dicamba, and mixtures thereof as an indirect parameter for increased drought tolerance was assessed. Leaves of 10 to 14 days old wheat plants were detached and placed into Eppendorf caps containing 2.2 ml of the test solution as described below. The wheat leaves were incubated for 24 h at 25° C. and 50% relative humidity in a growth chamber. After incubation, the incubated leaves were removed from the solution and placed on filter paper in a growth chamber for 60 minutes (25° C., 50% rel. humidity). Fresh biomass of the leaves was assessed directly after incubation and in addition after 60 minutes. The difference in fresh weight was recorded as relative weight loss. The relative loss of fresh weight is calculated as: [formula] In the present example wheat plants of the variety ‘Monopol’ were grown at 18° C. for 10 days in the greenhouse prior to the treatment and the incubation. 10 plants per treatment were treated and incubated as described. Fluxapyroxad and dicamba were dissolved on 0.5% DMSO. Tested concentrations are described in table 4. Control plants were treated with the blank 0.5% DMSO solution only. The efficacy of the tested compounds and mixtures was calculated as % of relative weight loss compared to the control: […] The expected efficacies of the combinations of the compounds were estimated using Colby's formula (Colby, S.

COc1c(Cl)ccc(Cl)c1C(=O)O [Dicamba, dicamba]
stimulation of the growth of the cotyledons (cucumber cotyledons): no stimulation of the growth | Mean cotyledon biomass (cucumber cotyledons; dicamba 1.25 ppm): 48.2 mg | Observed efficacy (cucumber cotyledons; dicamba 1.25 ppm): 0.2% | Mean water loss (wheat plants; dicamba 1.25 ppm): 0.781 g | Observed efficacy (wheat plants; dicamba 1.25 ppm): −4.8% | Mean water loss (wheat plants; dicamba 12.5 ppm): 0.765 g | Observed efficacy (wheat plants; dicamba 12.5 ppm): −2.7% | Mean water loss (wheat plants; dicamba 125 ppm): 0.737 g | Observed efficacy (wheat plants; dicamba 125 ppm): 1.1% | transpiration (water loss) (wheat plants; lower concentrations): increased transpiration | fresh weight loss (wheat leaves): reduced fresh weight loss | Mean relative weight loss (wheat leaves; dicamba 1.25 ppm): 17.09% | Observed efficacy (wheat leaves; dicamba 1.25 ppm): 10.69% | Mean relative weight loss (wheat leaves; dicamba 12.5 ppm): 15.74% | Observed efficacy (wheat leaves; dicamba 12.5 ppm): 17.76%

Cn1cc(C(=O)Nc2ccccc2-c2cc(F)c(F)c(F)c2)c(C(F)F)n1 [Fluxapyroxad, N-(3′,4′,5′-trifluorobiphenyl-2-yl)-3-difluoromethyl-1-methyl-1H-pyrazole-4-carboxamide]
stimulation of the growth of the cotyledons (cucumber cotyledons): no stimulation of the growth | Mean cotyledon biomass (cucumber cotyledons; fluxapyroxad 5 ppm): 47.1 mg | Observed efficacy (cucumber cotyledons; fluxapyroxad 5 ppm): −1.9% | Mean water loss (wheat plants; fluxapyroxad 10 ppm, 24 h at 25° C., 50% relative humidity): 1.061 g | Observed efficacy (wheat plants; fluxapyroxad 10 ppm, water loss compared to the control): −42.4% | Mean water loss (wheat plants; fluxapyroxad 50 ppm): 0.660 g | Observed efficacy (wheat plants; fluxapyroxad 50 ppm): 11.5% | Mean water loss (wheat plants; fluxapyroxad 100 ppm): 0.607 g | Observed efficacy (wheat plants; fluxapyroxad 100 ppm): 18.5% | transpiration (water loss) (wheat plants; higher concentrations): decreased transpiration | transpiration (water loss) (wheat plants; lower concentrations): increased transpiration | fresh weight loss (wheat leaves): reduced fresh weight loss | Mean relative weight loss (wheat leaves; fluxapyroxad 10 ppm, 24 h incubation, then 60 minutes on filter paper (25° C., 50% rel. humidity)): 17.62% | Observed efficacy (wheat leaves; fluxapyroxad 10 ppm, relative weight loss compared to the control): 7.94% | Mean relative weight loss (wheat leaves; fluxapyroxad 50 ppm): 13.61% | Observed efficacy (wheat leaves; fluxapyroxad 50 ppm): 28.89%
